Experimental data from PubChem BioAssay AID404 (SGCOxCompounds, 2006).

target: Receptor-type tyrosine-protein phosphatase kappa (Homo sapiens) (UniProt Q15262); assay: PTPRK phosphatase inhibition, biochemical, recombinant human enzyme, DiFMUP fluorescence (AID 404); conditions: at 50 µM, enzyme 34 ng/mL, 25 °C, DTT 5 mM, hits give high values
Sequence (Q15262 whole entry, looked up): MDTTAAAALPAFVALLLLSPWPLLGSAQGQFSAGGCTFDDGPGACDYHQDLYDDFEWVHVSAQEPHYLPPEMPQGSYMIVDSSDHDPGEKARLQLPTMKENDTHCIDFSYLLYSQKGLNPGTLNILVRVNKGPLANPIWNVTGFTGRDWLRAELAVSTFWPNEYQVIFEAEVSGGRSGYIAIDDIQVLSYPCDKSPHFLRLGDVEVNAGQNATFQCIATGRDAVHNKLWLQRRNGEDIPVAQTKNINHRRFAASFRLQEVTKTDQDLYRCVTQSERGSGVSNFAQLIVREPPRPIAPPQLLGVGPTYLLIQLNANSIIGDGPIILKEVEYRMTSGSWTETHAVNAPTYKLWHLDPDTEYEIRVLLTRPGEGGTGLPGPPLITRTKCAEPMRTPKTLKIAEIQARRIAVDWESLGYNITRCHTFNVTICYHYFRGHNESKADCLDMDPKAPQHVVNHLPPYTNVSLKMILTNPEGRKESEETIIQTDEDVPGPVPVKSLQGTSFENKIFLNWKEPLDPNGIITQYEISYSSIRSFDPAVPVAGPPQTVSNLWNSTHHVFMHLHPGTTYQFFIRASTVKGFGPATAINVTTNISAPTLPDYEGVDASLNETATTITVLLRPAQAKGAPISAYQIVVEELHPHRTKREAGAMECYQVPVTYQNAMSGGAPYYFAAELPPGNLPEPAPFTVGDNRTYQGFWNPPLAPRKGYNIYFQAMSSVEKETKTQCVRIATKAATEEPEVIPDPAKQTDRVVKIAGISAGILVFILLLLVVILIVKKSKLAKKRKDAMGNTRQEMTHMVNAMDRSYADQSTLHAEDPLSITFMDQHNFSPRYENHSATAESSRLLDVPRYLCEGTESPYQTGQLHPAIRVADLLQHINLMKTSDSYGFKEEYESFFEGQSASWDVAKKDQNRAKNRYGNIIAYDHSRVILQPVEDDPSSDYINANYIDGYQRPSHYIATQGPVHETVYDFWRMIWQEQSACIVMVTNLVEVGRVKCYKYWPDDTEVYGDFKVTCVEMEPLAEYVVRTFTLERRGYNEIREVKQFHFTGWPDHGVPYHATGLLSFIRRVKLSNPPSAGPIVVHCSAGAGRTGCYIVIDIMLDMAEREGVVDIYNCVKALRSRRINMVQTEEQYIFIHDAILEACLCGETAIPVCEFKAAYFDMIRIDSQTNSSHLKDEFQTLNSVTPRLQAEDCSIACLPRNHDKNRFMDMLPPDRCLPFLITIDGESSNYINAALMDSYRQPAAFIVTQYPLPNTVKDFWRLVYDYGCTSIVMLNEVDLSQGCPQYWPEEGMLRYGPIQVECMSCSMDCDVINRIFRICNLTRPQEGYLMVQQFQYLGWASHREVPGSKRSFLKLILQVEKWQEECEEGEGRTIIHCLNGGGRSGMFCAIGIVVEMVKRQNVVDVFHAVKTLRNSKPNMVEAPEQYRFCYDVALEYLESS

In order of falling inhibition:
1. O=C(O)c1ccc([O-])cn1.OO.OO.[K+].[K+].[O]=[V]  100%
2. O=C([O-])c1ccccn1.OO.OO.[K+].[K+].[O]=[V]  98%
3. OO.OO.[K+].[O]=[V].c1cnc2c(c1)ccc1cccnc12  96%
4. CN(N=O)c1ccc(O)c(O)c1  96%
5. O=C(O)c1ccc(O)cn1.OO.[O]=[V]  94%
6. OO.OO.[K+].[O]=[V].c1ccc(-c2ccccn2)nc1  93%
7. [NH-]CO.[NH-]CO.[NH-]CO.[NH-]CO.[O]=[V][O][V]=[O]  89%
8. O=C1NC(=S)S/C1=C\C=C\c1ccc([N+](=O)[O-])o1  78%
9. Cc1c(Cl)c(C)c([N+](=O)[O-])c(O)c1C=Nc1ccc(O)cc1C(=O)O  78%
10. COc1ccc(-c2nc3cc(N=Cc4cc(C(=O)O)ccc4O)ccc3o2)cc1  72%
11. O=C(O)c1ccc(O)c(C=Nc2ccc3oc(-c4cccc(Cl)c4Cl)nc3c2)c1  45%
12. CC(C)CN1C(=O)c2ccc(C(=O)Nc3ccc(O)cc3C(=O)O)cc2C1=O  41%
13. CC(=O)c1ccc2c(c1)C1C=CCC1C(C(=O)O)N2 (configuration not stated)  40%
14. Cc1cc(C)c(N2C(=O)c3ccc(C(=O)Nc4ccc(O)cc4C(=O)O)cc3C2=O)c(C)c1  38%
15. Cc1ccc2nc(-c3cc(N=Cc4cc(C(=O)O)ccc4O)ccc3O)[nH]c2c1  34%
16. O=C(O)c1ccc(O)c(/C=N/N(CCO)C2=NS(=O)(=O)c3ccccc32)c1  32%
17. O=C(O)c1ccc(O)c(C=Nc2cccc(-c3nc4ccccc4o3)c2)c1  31%
18. CC(C)(C)NC(=O)CCN(/N=C/c1cc(C(=O)O)ccc1O)C1=NS(=O)(=O)c2ccccc21  30%
19. COc1cccc(-c2nc3cc(N=Cc4cc(C(=O)O)ccc4O)ccc3o2)c1  29%
20. NC1=NC(=O)/C(=C/C=C/c2ccc([N+](=O)[O-])o2)S1  24%
21. O=C1NC(=S)NC(=O)C1=C/C=C/c1ccco1  22%
22. O=C(COc1ccc([N+](=O)[O-])cc1)Nc1ccc(O)cc1C(=O)O  20%
23. Cc1ccc(N=Cc2cc(C(=O)O)ccc2O)c(O)c1  20%
24. O=C(Nc1ccc(O)cc1C(=O)O)c1ccc(NC(=O)c2ccco2)cc1  18%
25. CC1=C(C)OC(Nc2ccc(Br)cc2C(=O)O)C=C1 (configuration not stated)  15%
26. O=C(O)c1ccc(O)c(C=Nc2ccc3oc(-c4cc(Cl)ccc4Cl)nc3c2)c1  15%
27. F  14%
28. CC(C)CCN1C(=O)c2ccc(C(=O)Nc3ccc(O)cc3C(=O)O)cc2C1=O  14%
29. CC(C)(c1ccc(NS(=O)(=O)C(F)(F)F)cc1)c1ccc(C(C)(C)c2ccc(NS(=O)(=O)C(F)(F)F)cc2)cc1  14%
30. Oc1c(Cl)c(Cl)c(O)c2nsnc12  12%
31. O=C(Nc1ccc(O)cc1C(=O)O)c1ccc2c(c1)C(=O)N(CC1CCCO1)C2=O (configuration not stated)  12%
32. CC1(C)OC(=O)C(=Cc2ccc(Br)o2)C(=O)O1  11%
